Series [1] has as its system mouse merlin-null Schwann cells. Put plainly: Violet Ratiometric membrane asymmetry / dead cell apoptosis flow cytometry assay. The format is cell-based. The following applies: 24 hours. The method, then:
(§1) FIGS. 10 A-C. Phenotypic Apoptosis Assays. (A). Merlin-null Schwann cells in a 384-well format were incubated with the indicated compounds for 8 hours. Caspase-3/7 activity was measure with Apo-ONE Homogeneous Assay (Promega). n=32 wells. (B). Merlin-null Schwann cells in a 6-well format were treated with compounds (10 uM) for 24 hours. Membrane asymmetry was detected with Violet Ratiometric assay and read on a BD Cantos II flow cytometer. (C). Population distribution for B is shown.
In yet another aspect, compounds may be identified which induce programmed cell death or inhibit proliferation of Merlin-null Schwann cells. Merlin-pathway assays may be conducted to identify the subset of compounds that modulate the activity of known merlin pathways. The effector caspase cascade is activated in many extrinsic and intrinsic cell death pathways^29. […] The effect of compounds on caspase-3 activity can be measured by first lysing the cells and centrifuging to pellet the debris. […] Enzyme activity may be measured on an Envision plate reader at Ex400 nm/Em505 nm. The enzyme activity may be calculated from a standard curve generated using recombinant caspase-3 enzyme (R&D System, Inc.) and expressed as fold-increase in activity. […] Transfer of phosphatidylserine and phosphatidylethanolamine from the inner to the outer leaflet of the plasma membrane changes the membrane potential that is detected by F2N12S. […]

The test system is the same in series [2]. Put plainly: MultiTox-Fluor cell viability assay with merlin-null Schwann cells (NF2-MTC).
Protocol: To ascertain whether this cell line was amenable to a HTS platform, the present inventors tested cell adherence and growth on several types of 384-well plates. Wells were seeded at varying cell densities (2,500-20,000 cells/well) and the ratio of live:dead cells was measured 24 hours later using the MultiTox-Fluor Multiplex Cytotoxicity Assay (Promega). This assay uses fluorescent probes to measure protease activities from live and dying cells. […] Therefore, the DMSO concentration for screening will be maintained at 0.5%.
For the next series, the system named is caspase 3/7 activity. The experiment in a line: Caspase-3/7 activity (Apo-ONE Homogeneous Assay) in merlin-null Schwann cells. The format is cell-based, mouse. As to conditions: for mechanism of apoptotic death in context of the Apo-One assay result: 384-well format, 8 hours. The protocol:
as §1
In yet another aspect, compounds may be identified which induce programmed cell death or inhibit proliferation of Merlin-null Schwann cells. Merlin-pathway assays may be conducted to identify the subset of compounds that modulate the activity of known merlin pathways. The effector caspase cascade is activated in many extrinsic and intrinsic cell death pathways^29. The CPCCG has an established HTS assay that measures caspase-3 activity based on the cleavage and enzymatic degradation of a fluorescent substrate containing the amino acid motif DEVD (DEVD-7-amino-4-trifluoromethyl coumarin, DEVD-AFC). Briefly, Merlin-null Schwann cells may be dispensed and test compounds added, and incubated as described for the primary screening assay. The effect of compounds on caspase-3 activity can be measured by first lysing the cells and centrifuging to pellet the debris. Next, 20 μl of 2× reaction buffer may be added, followed by 1 μL, DTT (0.01M final). Finally, 1uL of DEVD-AFC may be added and the plate may be incubated at 37° C. for 1.5 h. Enzyme activity may be measured on an Envision plate reader at Ex400 nm/Em505 nm. The enzyme activity may be calculated from a standard curve generated using recombinant caspase-3 enzyme (R&D System, Inc.) and expressed as fold-increase in activity. […] Transfer of phosphatidylserine and phosphatidylethanolamine from the inner to the outer leaflet of the plasma membrane changes the membrane potential that is detected by F2N12S. […]

Series [3] deals with mouse merlin-null Schwann cells. The experiment in a line: BrdU/7-AAD flow cytometry assay. Type of series: cell-based. The method, then:
(§2) FIGS. 11A-D. Phenotypic Proliferation Assays. (A) Merlin-null Schwann cells (384-well format) were treated with the indicated compounds and concentrations for 24 hours and labeled with EdU during the last 9 hours. Incorporation of EdU into S-phase cells was read on a Biotek H1 Hybrid reader. (B) The plate was also imaged with a Trophos high resolution fluorescence Plate Runner. (C). […] The cell population profile is shown and was analyzed using the ModFit program. (D). Merlin-null Schwann cells were grown as in C but were labeled with BrdU during the final 3 hours of treatment then stained with 7AAD. The distribution of BrdU- and 7AAD-labelled cells is shown and was analyzed with Diva program. The BD Cantos II flow cytometer was used above.
In yet another aspect, identification of compounds that affect proliferation of Merlin-null mouse Schwann cells can be performed by conducting a Click-iT EdU Microplate Assay (Life Technologies) in the 384 well-plate format and then follow-up with BrdU/7AAD and propidium iodide flow cytometer assays. […] The EdU-Click-iT assay uses a 2-step procedure to identify cells in the S-phase of the cell cycle. EdU (5-ethynyl-2′-deoxyuridine) is a DNA analog that has been modified with an alkyne and is incorporated by cells in S phase. It reacts with Alexa-Fluor-Oregon green azide in the presence of a copper solution to form a covalent bond. Fluorescence emission is measured on a Hybrid HT plate reader (FIG. 11A) as well as on a Trophos Plate RUNNER HD that captures images of the wells (FIG. 11B). This allows confirmatory cell counts to be obtained. Cell cycle profiles were collected using propidium iodide (PI) labeling of log-phase growing Merlin-null Schwann cells (FIG. 11C). The results were confirmed by acquiring the ratio of BrdU-positive to total 7AAD-labelled cells in an independent assay (FIG. 11D).
(A flow cytometer gives signals particle by particle.)

Series [4] deals with cofilin phosphorylation (substrate for LIMK). Put plainly: Western blot of cofilin phosphorylation in normal rat Schwann cells. Type of series: cell-based. As to conditions: 6 hours. Background: Immunoblotting shows a protein as a band on a membrane.
Series [5] relates to mouse merlin-null Schwann cells. The experiment in a line: Crystal Violet cell number assay. The format is cell-based.
Series [6] has the same test system. Put plainly: Propidium iodide flow cytometry cell cycle assay. The format is cell-based. The protocol: as §2
In yet another aspect, identification of compounds that affect proliferation of Merlin-null mouse Schwann cells can be performed by conducting a Click-iT EdU Microplate Assay (Life Technologies) in the 384 well-plate format and then follow-up with BrdU/7AAD and propidium iodide flow cytometer assays. […] The EdU-Click-iT assay uses a 2-step procedure to identify cells in the S-phase of the cell cycle. […] Fluorescence emission is measured on a Hybrid HT plate reader (FIG. 11A) as well as on a Trophos Plate RUNNER HD that captures images of the wells (FIG. 11B). […]

In a further series the test system is cofilin phosphorylation. Put plainly: Cofilin phosphorylation in mouse Schwann cells (summary statement). The format is cell-based.
The mark [7] stands for this setting: 5 μM, 24 hr, BrdU for the last 3 hr.

SMILES strings stand for the structures. Where “and” joins values, the source holds several entries; their conditions need not be identical. Equal entries are not always repeated. Entries after “also recorded” stand apart in the source; their conditions may differ.

As for `COc1ccc2c(c[n+](C)c3c4cc5c(cc4ccc23)OCO5)c1OC.[Cl-]` [CHE, cheleryithrine chloride], the “apoptotic death (Q1+Q3), share of Merlin-null Schwann cells” value in series [1] (10 uM, 6-well format, flow cytometer) is recorded as 93%.

Consider `FC(F)(F)c1ccc(/C=C/c2nc(COc3ccc(CCCCn4ccnn4)cc3)co2)cc1` [TAK 165], for which the “MTC viability compared to DMSO control (in words)” value in series [2] (TAK 165 50 nM, positive control) is reported as “effective in reducing MTC viability”.

Consider `CO[C@H]1C[C@@H]2CC[C@@H](C)[C@@](O)(O2)C(=O)C(=O)N2CCCC[C@H]2C(=O)O[C@H]([C@H](C)C[C@@H]2CC[C@@H](O)[C@H](OC)C2)CC(=O)[C@H](C)/C=C(\C)[C@@H](O)[C@@H](OC)C(=O)[C@H](C)C[C@H](C)/C=C/C=C/C=C/1C` [rapamycin, Rapamycin], for which the “viability of cells, % of the DMSO control” value in series [2] (50 μM rapamycin, 384-well plate, 5,000 cells/well) is 20+/−1.4%.

Regarding `N#C/C(=C\c1ccc(-c2cc(Cl)ccc2Cl)o1)C(=O)Nc1cccc2ncccc12` [AGK2], the “mechanism of apoptotic death in context of the Apo-One assay result” value in the series with caspase 3/7 activity is on record as “caspase3/7-independent”. The “anti-proliferative effects on the cells” value in series [3] (24 hours of drug treatment, S-phase labelling for the final 3 hours) is on record as “did not reveal clear anti-proliferative effects”.

`CC(C)C(=O)Nc1ncc(-c2cc(C(F)F)nn2-c2c(Cl)cccc2Cl)s1` [BMS-5]: in series [4] (Western blot, read-out: amount needed to reduce cofilin phosphorylation by 50% of the untreated control), the IC50 was 0.2 µM. Besides, the “cofilin phosphorylation (dose response, in words)” value in series [4] (increasing BMS-5) was “reduces the amount of cofilin phosphorylation; also recorded: cofilin phosphorylation decreases”. In the series with caspase 3/7 activity, the “mechanism of apoptotic death in context of the Apo-One assay result” value is “caspase3/7-independent”. Also, in the series with caspase 3/7 activity (8 hours incubation, increasing doses), the “difference in caspase 3/7 activity versus untreated or DMSO controls” value is on record as “no significant difference”. Moreover, the “number of cells with plasma membrane asymmetry” value in series [1] (2 μM) was “does not significantly increase”. Moreover, in series [5] (2 μM), the “change in the number of cells after 72 hours” value is given as “no change”. Besides, the “cell number compared to untreated or DMSO controls” value in series [5] (1 and 2 μM, 72 hours) is “decrease in the cell number”. Besides, the “increase of cells in G2/M phase” value in series [6] (5 μM, 17 hr, Propidium Iodine staining) was “more than 100%”. Also, in series [6] (5 uM, 22 hours), the “cell cycle profile (PI labeling and BrdU profiles, in words)” value is on record as “accumulate in G2/M”. For the same compound, in series [3] (setting [7]), the “cells in G0/G1 and S phase” value is on record as “massive depletion”; the “number of cells in G2/M” value is recorded as “moderate increase; also recorded: moderately increase”. For the same compound, the “cofilin phosphorylation in mouse Schwann cells (in words)” value in the series on cofilin phosphorylation was “reduced cofilin phosphorylation”. Moreover, the “MTC number / proliferation with increasing concentration (in words)” value in series [2] (24 hours, various inhibitor concentrations) is “inhibited proliferation; also recorded: dose-respondent inhibition”. Also, the “MTC viability compared to DMSO control (in words)” value in series [2] (BMS-5 5 μM, 24 hours) is “reduced MTC viability”. In addition, the EC50 in series [2] (read-out: EC50: concentration that reduces the number of merlin-null Schwann cells by 50% of control, 24 hours, 96-well format, 32 replicates/concentration) was 1.96 µM and ~2 µM.

For the origin of these results see US9408832B2, “LIM kinasemodulating agents for neurofibromatoses therapy and methods for screening for same” (University of Central Florida Research Foundation, Inc., priority 2012, dated 2016).
